Assays:
[1] = Cytotoxicity in the TK6 assay (CE, RS, RSG, RTG); conditions: human; for viability at 24 h, 173.7 μg/mL: 173.70 μg/mL; for viability at 24 h, 277.9 μg/mL: 277.90 μg/mL; for viability at 4 h, 444.7 μg/mL: dose 444.70 μg/mL
[2] = system: TK6 cells; assay: Cytotoxicity in the TK6 assay (CE, RS, RSG, RTG)
[3] = TK6 cells with rat liver S9 mix, CE0 (%), cell viability on Day 0, Short treatment, +S9 mix
[4] = TK6 cells with rat liver S9 mix, CE3 (%), cell viability on Day 3, Short treatment, +S9 mix
[5] = TK6 cells without S9 mix, CE0 (%), cell viability on Day 0, 24 h treatment, -S9 mix
[6] = TK6 cells without S9 mix, CE0 (%), cell viability on Day 0, Short treatment, -S9 mix
[7] = TK6 cells without S9 mix, CE3 (%), cell viability on Day 3, 24 h treatment, -S9 mix
[8] = TK6 cells without S9 mix, CE3 (%), cell viability on Day 3, Short treatment, -S9 mix
[9] = 24 h treatment, -S9 mix, 173.70 μg/mL
[10] = 24 h treatment, -S9 mix, 277.90 μg/mL
[11] = 24 h treatment, -S9 mix, 444.70 μg/mL
[12] = 24 h treatment, -S9 mix, 711.5 μg/mL
[13] = 24 h treatment, -S9 mix, 1138.4 μg/mL
[14] = 24 h treatment, -S9 mix, 1821.4 μg/mL
[15] = Short treatment, +S9 mix, dose 173.7 μg/mL
[16] = Short treatment, +S9 mix, dose 277.9 μg/mL
[17] = Short treatment, +S9 mix, dose 445 μg/mL

Question: Which results are given for `Nc1cc([N+](=O)[O-])ccc1C(=O)O` [4-Nitroanthranilic acid]?
Answer: viability at 4 h, 173.7 μg/mL ([1]; TK6 cells with rat liver S9 mix, CE0 (%), cell viability on Day 0, Short treatment, +S9 mix, dose 173.7 μg/mL): 84.1%; viability at 4 h, 277.9 μg/mL ([1]; TK6 cells with rat liver S9 mix, CE0 (%), cell viability on Day 0, Short treatment, +S9 mix, dose 277.9 μg/mL): 98%; viability at 4 h, 445 μg/mL [1, 3]: 72.7%; viability at 4 h, 712 μg/mL [1, 3]: 79.3%; viability at 4 h, 1138 μg/mL [1, 3]: 108%; viability at 4 h, 1821 μg/mL [1, 3]: 3.3%; viability at 4 h, 173.7 μg/mL ([1]; TK6 cells with rat liver S9 mix, CE3 (%), cell viability on Day 3, Short treatment, +S9 mix, dose 173.7 μg/mL): 70.6%; viability at 4 h, 277.9 μg/mL ([1]; TK6 cells with rat liver S9 mix, CE3 (%), cell viability on Day 3, Short treatment, +S9 mix, dose 277.9 μg/mL): 66.7%; viability at 4 h, 445 μg/mL [1, 4]: 81.6%; viability at 4 h, 712 μg/mL [1, 4]: 98%; viability at 4 h, 1138 μg/mL [1, 4]: 84.1%; viability at 4 h, 1821 μg/mL [1, 4]: 44.6%; viability at 24 h, 173.7 μg/mL [1, 5]: 47.4%; viability at 24 h, 277.9 μg/mL [1, 5]: 23.4%; viability at 24 h, 444.7 μg/mL ([1]; TK6 cells without S9 mix, CE0 (%), cell viability on Day 0, 24 h treatment, -S9 mix, 444.70 μg/mL): 42%; viability at 24 h, 711.5 μg/mL [1, 5]: 42%; viability at 24 h, 1138.4 μg/mL ([1]; TK6 cells without S9 mix, CE0 (%), cell viability on Day 0, 24 h treatment, -S9 mix, 1138.4 μg/mL): 30.4%; viability at 24 h, 1821.4 μg/mL [1, 5]: 24.4%; viability at 4 h, 173.7 μg/mL ([1]; TK6 cells without S9 mix, CE0 (%), cell viability on Day 0, Short treatment, -S9 mix, dose 173.70 μg/mL): 120%; viability at 4 h, 277.9 μg/mL ([1]; TK6 cells without S9 mix, CE0 (%), cell viability on Day 0, Short treatment, -S9 mix, dose 277.90 μg/mL): 77%; viability at 4 h, 444.7 μg/mL [1, 6]: 77%; viability at 4 h, 711.5 μg/mL [1, 6]: 74.8%; viability at 4 h, 1138.4 μg/mL [1, 6]: 46%; viability at 4 h, 1821.4 μg/mL [1, 6]: 29.4%; viability at 24 h, 173.7 μg/mL [1, 7]: 84.1%; viability at 24 h, 277.9 μg/mL [1, 7]: 84.1%; viability at 24 h, 711.5 μg/mL [1, 7]: 68.7%; viability at 24 h, 1821.4 μg/mL [1, 7]: 43.3%; viability at 4 h, 173.7 μg/mL ([1]; TK6 cells without S9 mix, CE3 (%), cell viability on Day 3, Short treatment, -S9 mix, dose 173.70 μg/mL): 89.3%; viability at 4 h, 277.9 μg/mL ([1]; TK6 cells without S9 mix, CE3 (%), cell viability on Day 3, Short treatment, -S9 mix, dose 277.90 μg/mL): 77%; viability at 4 h, 444.7 μg/mL [1, 8]: 105%; viability at 4 h, 711.5 μg/mL [1, 8]: 101%; viability at 4 h, 1138.4 μg/mL [1, 8]: 95%; viability at 4 h, 1821.4 μg/mL [1, 8]: 105%; cytotoxicity ([2]; 1138 μg/mL, short-term without metabolic activation): More than 50%; cytotoxicity ([2]; 1821 μg/mL, long-term treatment): More than 80%; cytotoxicity ([2]; 1821 μg/mL, short-term with metabolic activation): approximately 100%; cytotoxicity ([2]; 1821 μg/mL, short-term without metabolic activation): More than 50%; Adjusted CE0(%) [2, 9]: 111.3%; RS0 (%) [2, 9]: 133.0%; RSG [2, 9]: 1.273; Adjusted CE0(%) [2, 10]: 40.4%; RS0 (%) [2, 10]: 48.3%; RSG [2, 10]: 0.978; Adjusted CE0(%) [2, 11]: 71.5%; RS0 (%) [2, 11]: 85.4%; RSG [2, 11]: 1.146; Adjusted CE0(%) [2, 12]: 49.4%; RS0 (%) [2, 12]: 59.0%; RSG [2, 12]: 1.081; Adjusted CE0(%) [2, 13]: 26.6%; RS0 (%) [2, 13]: 31.8%; RSG [2, 13]: 0.835; Adjusted CE0(%) [2, 14]: 14.0%; RS0 (%) [2, 14]: 16.7%; RSG [2, 14]: 0.892; Adjusted CE0(%) [2, 15]: 84.1%; RS0 (%) [2, 15]: 71.1%; RSG [2, 15]: 1.078; Adjusted CE0(%) [2, 16]: 107.8%; RS0 (%) [2, 16]: 91.1%; RSG [2, 16]: 0.902; Adjusted CE0(%) [2, 17]: 58.9%; RS0 (%) [2, 17]: 49.8%

— article PMC7937321 (Genes and Environment, 2021)
